{
  "source": "ChEMBL document CHEMBL1177795",
  "about": "“Synthesis of two marine farnesylacetones that dilate the basilar arteries of rabbits” (Bioorg Med Chem Lett, 2010)",
  "data": [
    {"test": "Vasorelaxant activity against depolarization-induced basilar artery constriction in white rabbit at 10 uM", "type": "functional, Oryctolagus cuniculus", "parameters": "scale not given: the % may be the effect or the level left", "units": {"Activity": "%"}, "values": [
      {"smiles": "C/C(=C\\CCC1(C)OCCO1)CCC/C(C)=C/C(O)CC(C)C", "note": "(stereo unspecified)", "Activity": 99.8},
      {"smiles": "C/C(=C\\CCC1(C)OCCO1)CCC/C(C)=C/C(=O)CC(C)C", "Activity": 83.3},
      {"smiles": "CC(=O)CC/C=C(\\C)CCC/C(C)=C/C=O", "Activity": 12.6},
      {"smiles": "C/C(=C\\CC/C(C)=C/CCC1(C)OCCO1)CC#N", "Activity": 33.5},
      {"smiles": "C/C(=C\\C#N)CCC/C(C)=C/CCC1(C)OCCO1", "Activity": 44.6},
      {"smiles": "CC(=O)CC/C=C(\\C)CCC/C(C)=C/C#N", "Activity": 10.3},
      {"smiles": "C/C(=C\\C=O)CCC/C(C)=C/CCC1(C)OCCO1", "Activity": 20.1},
      {"smiles": "CC(=O)CC/C=C(\\C)CC/C=C(\\C)CC#N", "Activity": 13.1},
      {"smiles": "CC(=O)CC/C=C(\\C)CCC/C(C)=C/C(O)CC(C)C", "note": "(stereo unspecified)", "Activity": 98.9}
    ]},
    {"test": "Vasorelaxant activity against depolarization-induced basilar artery constriction in white rabbit", "type": "functional, tissue-based, Oryctolagus cuniculus", "units": {"EC50": "nM"}, "values": [
      {"smiles": "C/C(=C\\CCC1(C)OCCO1)CCC/C(C)=C/C(O)CC(C)C", "note": "(stereo unspecified)", "EC50": 1410},
      {"smiles": "CC(=O)CC/C=C(\\C)CCC/C(C)=C/C(O)CC(C)C", "note": "(stereo unspecified)", "EC50": 2380}
    ]}
  ]
}
